Results on 4 compounds are retold here after patent publication US4518581A, “Imparting low- or anti-cariogenic property to orally-usable products” (Kabushiki Kaisha Hayashibara Seibutsu Kagaku Kenkyujo, priority 1981, dated 1985).

The subject of test [1] is Streptococcus mutans 6715 strain. The test is described as follows: Organic acid formation from saccharides by Streptococcus mutans cells, pH-measurement (Experiment 4). Type of test: cell-based. Particulars: 37° C., 30 minutes; for organic acid formation from the saccharide: Streptococcus mutans 6715 cells; for pH-Level of the reaction mixture (organic acid formation): cell suspension, Stephan's buffer (pH 7.0), saccharide solution. The protocol:
Organic acid formation from some saccharides by Streptococcus mutans was tested: Streptococcus mutans 6715 strain was cultivaed similarly as in EXPERIMENT 1, and the cells, obtained by centrifuging the culture, were washed with 0.9 w/v % sodium chloride solution, followed by additional centrifugation. Two ml of a mixture solution, consisting of 0.2 ml of the cell suspension, prepared from about 100 ml of the culture, 1.5 ml of Stephan's buffer, and 0.3 ml aqueous solution of each saccharide as listed in TABLE II, was incubated at 37° C. for 30 minutes, followed by pH-measurement of the reaction mixture. The Stephan's buffer was prepared by the method as reported by R. M. Stephan et al., Journal of Dental Research, Vol.26, pp.15-41 (1947): One ml of Solution I, prepared by dissolving 17.89 g Na2 HPO4. 12H2 O, 7.92 g KOH and 6.81 g KH2 PO4 in water to give a final volume of 100 ml, was placed in a 100-ml volumetric flask, and mixed with about 90 ml of water. To the flask was added 1 ml of Solution II, prepared by dissolving 4.54 g KH2 PO4, 0.32 g MgSO4.7H2 O, 0.57 g CaSO4.2H2 O and 10 ml of 3.5% hydrochloric acid solution in water to give a final volume of 100 ml. This mixture was diluted with additional water to obtain 100 ml of Stephan's buffer (pH 7.0).
The results are given in TABLE II, wherein the organic acid formation from the saccharides can be estimated by the pH-values.

Test [2] concerns the target T1, water-insoluble glucan producing enzyme (Streptococcus downei, UniProt P27470).
T1 construct: to the supernatant was added with ammonium sulfate to give 60% saturation; endogenous in cells; host or cells: Streptococcus mutans 6715 strain (today S. sobrinus), culture supernatant, ammonium sulfate precipitate, dialyzed
Kind of test: Effect of saccharides on formation of water-insoluble glucan from sucrose (Experiment 3). In kind it is biochemical, Streptococcus mutans 6715 strain. Conditions: saccharide reduced to 10% against sucrose: 1 ml 4 w/v % sucrose plus 1 ml 0.4 w/v % saccharide, 37° C., 16 hours.

In test [3] the target is T1, water-insoluble glucan producing enzyme. The test is described as above. Type of test: biochemical, Streptococcus mutans 6715 strain. Particulars: 1 ml 4 w/v % sucrose plus 1 ml 4 w/v % saccharide, 0.02 units enzyme, 37° C., 16 hours; sucrose control 300. How it is done: After completion of the cultivation, the culture was separated into cell precipitant and supernatant. Thereafter, to the supernatant was added with ammonium sulfate to give 60% saturation, and the resultant precipitant was dialyzed against 0.1M phosphate buffer (pH 7.2) to obtain an aqueous solution containing the enzyme.
The titers of the enzyme were assayed as follows: A mixture solution, consisting of 1 ml of 0.2M aqueous sucrose solution, 1 ml of water, 1 ml of 0.1M phosphate buffer containing 0.05 w/v % NaN3, and 0.5 ml of the enzyme solution (below 0.05 units), is incubated at 37° C. for 9 hours, followed by centrifugation of the reaction mixture. The resultant precipitant is mixed with 4 ml of 0.5N sodium hydroxide solution, and then incubated at this temperature for an additional one hour to dissolve the precipitant. The amount of water-insoluble glucan formed during the enzymatic reaction is then measured. One unit of the enzyme is defined as the amount of enzyme that transfers 1 μmole glucose from sucrose to the water-insoluble glucan in one minute.
Effects of some saccharides on the formation of water-insoluble glucan were tested: Water-insoluble glucan formation and inhibition thereof were determined according to the enzyme assay method as described in EXPERIMENT 1, except that the mixture solution contained sucrose, or sucrose and each saccharide as listed in TABLE I. The experiment was carried out as follows: A mixture solution, consisting of 1 ml of 4 w/v % aqueous sucrose solution, 1 ml of 4 w/v % aqueous solution of each saccharide as listed in TABLE I, 1.5 ml of 0.1M phosphate buffer containing 0.05 w/v % NaN3, and 0.5 ml of the enzyme solution (0.02 units), was incubated at 37° C. for 16 hours, and the water-insoluble glucan formation in the reaction mixture was determined according to the enzyme assy method.
In a control experiment, 1 ml of the above described saccharide solution was replaced with the same amount of water.
The inhibition degree was calculated with following equation:
Inhibition degree (%)=100-A/B×100
where A and B are respective amounts of the water-insoluble glucan formed (μg/ml) when the mixture solution contained sucrose or sucrose and each of the saccharides.

T1 sequence (P27470 39-1592): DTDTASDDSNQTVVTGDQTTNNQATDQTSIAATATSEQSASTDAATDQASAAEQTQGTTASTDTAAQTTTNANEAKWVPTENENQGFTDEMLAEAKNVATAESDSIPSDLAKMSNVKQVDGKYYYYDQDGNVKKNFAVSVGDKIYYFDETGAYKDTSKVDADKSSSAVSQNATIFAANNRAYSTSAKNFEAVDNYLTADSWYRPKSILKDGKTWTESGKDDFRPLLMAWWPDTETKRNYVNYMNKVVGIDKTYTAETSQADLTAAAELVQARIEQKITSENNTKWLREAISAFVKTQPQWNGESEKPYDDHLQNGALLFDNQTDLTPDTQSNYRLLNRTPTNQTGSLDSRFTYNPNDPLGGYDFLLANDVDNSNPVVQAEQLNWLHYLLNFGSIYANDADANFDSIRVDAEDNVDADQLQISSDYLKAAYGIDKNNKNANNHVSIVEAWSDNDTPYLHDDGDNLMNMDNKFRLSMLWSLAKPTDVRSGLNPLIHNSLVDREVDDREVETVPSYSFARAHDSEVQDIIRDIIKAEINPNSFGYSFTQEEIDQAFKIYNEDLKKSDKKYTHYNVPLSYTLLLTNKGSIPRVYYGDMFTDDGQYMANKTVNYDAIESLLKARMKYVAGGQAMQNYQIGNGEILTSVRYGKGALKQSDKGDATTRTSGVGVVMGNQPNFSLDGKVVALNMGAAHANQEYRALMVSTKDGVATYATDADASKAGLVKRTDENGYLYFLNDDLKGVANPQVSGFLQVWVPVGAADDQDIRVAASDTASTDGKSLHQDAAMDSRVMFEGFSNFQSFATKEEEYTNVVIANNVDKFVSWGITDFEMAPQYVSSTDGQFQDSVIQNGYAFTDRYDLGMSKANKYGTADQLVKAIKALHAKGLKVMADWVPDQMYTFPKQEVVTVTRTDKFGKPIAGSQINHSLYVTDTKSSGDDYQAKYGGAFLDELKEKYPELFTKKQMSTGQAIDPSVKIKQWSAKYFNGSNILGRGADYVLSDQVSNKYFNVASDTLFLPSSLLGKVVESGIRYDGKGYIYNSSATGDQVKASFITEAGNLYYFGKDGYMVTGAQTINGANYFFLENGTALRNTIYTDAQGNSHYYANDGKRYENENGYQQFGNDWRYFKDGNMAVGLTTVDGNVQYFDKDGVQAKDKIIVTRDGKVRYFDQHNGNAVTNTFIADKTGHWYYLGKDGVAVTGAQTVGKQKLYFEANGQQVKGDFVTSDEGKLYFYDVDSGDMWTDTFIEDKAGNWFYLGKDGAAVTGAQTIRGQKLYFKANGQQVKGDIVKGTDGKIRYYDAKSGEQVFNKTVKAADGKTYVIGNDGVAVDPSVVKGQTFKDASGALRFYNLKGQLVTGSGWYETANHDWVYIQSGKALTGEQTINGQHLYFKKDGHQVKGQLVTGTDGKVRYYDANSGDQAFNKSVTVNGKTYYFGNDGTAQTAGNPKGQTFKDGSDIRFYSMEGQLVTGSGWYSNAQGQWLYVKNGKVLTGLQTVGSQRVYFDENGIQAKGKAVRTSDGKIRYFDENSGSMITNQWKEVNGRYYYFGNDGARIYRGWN

On to `OC[C@H]1O[C@H](OC[C@H]2O[C@H](O[C@H]3[C@H](O)[C@@H](O)[C@@H](O[C@H]4[C@H](O)[C@@H](O)C(O)O[C@@H]4CO)O[C@@H]3CO)[C@H](O)[C@@H](O)[C@@H]2O)[C@H](O)[C@@H](O)[C@@H]1O` (stereo partly drawn) [Isomaltosyl maltose, 4^2 -O-α-isomaltosyl maltose], for which, in test [1], the “organic acid formation from the saccharide” value is given as “no organic acid formation” and the “pH-Level of the reaction mixture (organic acid formation)” value (shortened to “pH-Level of the reaction mixture”) worked out at 7.0. Besides, the “C: inhibition degree of water-insoluble glucan formation” value (from here on “C: inhibition degree”) in test [2] came out at 55%. The “C: inhibition degree” value in test [2] (listed as isomaltosyl maltose) is 45-60%. Further, in test [3], the “A: amounts of water-insoluble glucan formed” value (“A: amounts” for short) was 24 µg/mL.
For `OC[C@H]1O[C@H](OC[C@H]2O[C@H](OC[C@H]3O[C@H](OC[C@H]4OC(O)[C@H](O)[C@@H](O)[C@@H]4O)[C@H](O)[C@@H](O)[C@@H]3O)[C@H](O)[C@@H](O)[C@@H]2O)[C@H](O)[C@@H](O)[C@@H]1O` (stereo partly drawn) [Isomaltotetraose, 6^2 -O-α-isomaltosyl isomaltose], in test [1], the “organic acid formation from the saccharide” value is “no organic acid formation” and the “pH-Level of the reaction mixture” value is on record as 7.0. In addition, in test [2], the “C: inhibition degree” value is 58%. Further, the “C: inhibition degree” value in test [2] (listed as isomaltotetraose) is listed as 45-60%. In test [3], the “A: amounts” value is 18 µg/mL.
Consider `OC[C@H]1O[C@H](OC[C@H]2O[C@H](OC[C@H]3O[C@H](OC[C@H]4O[C@H](OC[C@H]5OC(O)[C@H](O)[C@@H](O)[C@@H]5O)[C@H](O)[C@@H](O)[C@@H]4O)[C@H](O)[C@@H](O)[C@@H]3O)[C@H](O)[C@@H](O)[C@@H]2O)[C@H](O)[C@@H](O)[C@@H]1O` (stereo partly drawn) [Isomaltopentaose, 6^3 -O-α-isomaltosyl isomaltotriose], for which, in test [1], the “organic acid formation from the saccharide” value is given as “no organic acid formation”. Besides, the “pH-Level of the reaction mixture” value in test [1] is listed as 7.0. Moreover, the “C: inhibition degree” value is 60% in test [2] and 45-60% in test [2] (listed as isomaltopentaose). For the same compound, in test [3], the “A: amounts” value stood at 15 µg/mL.
Consider `OC[C@H]1O[C@H](OC[C@H]2O[C@H](OC[C@H]3OC(O)[C@H](O)[C@@H](O)[C@@H]3O)[C@H](O)[C@@H](O)[C@@H]2O)[C@H](O)[C@@H](O)[C@@H]1O` (some centres unmarked) [Isomaltotriose], for which, in test [1], the “organic acid formation from the saccharide” value was “no organic acid formation” and the “pH-Level of the reaction mixture” value is listed as 7.0. In addition, the “C: inhibition degree” value in test [2] was 49%. Moreover, the “C: inhibition degree” value in test [2] (listed as isomaltotriose) is on record as 45-60%. Further, the “A: amounts” value in test [3] was 36 µg/mL.
